Experimental data reported in patent US7279183B2, “Method of reducing thrombosis and complications after arterial angioplasty using stent coated with magnesium-based compound” (Cedars-Sinai Medical Center, priority 2001, dated 2007).
Like-named read-outs stand apart in the source and are kept apart here. Blank lines part the entries; values can stand above or below the molecule they belong to.

Tests used:
platelet aggregation = test: whole blood aggregometry, agonist-induced platelet aggregation; assay type: cell-based, swine; settings: for platelet aggregation: 3 pigs
Description: Thirty minutes after administration of the heparin (in the heparin alone) or magnesium, 3 mL venous blood was collected in a siliconized test tube containing 0.3 mL of 0.129 molar sodium citrate or sodium heparin (Becton Dickinson Vacutainer System). Whole blood aggregometry (Chronolog Corp.) was used to measure collagen (2 and 5 μg/mL)- and Adenosine diphosphate (2.5 μM)-induced platelet aggregation. Aggregation was expressed as maximal increase in electrical impedance measured in ohms at 6 minutes after the addition of agonist.

[1] = complete blood cell count; settings: data not shown
[2] = bleeding time from thigh incision; assay type: in vivo, swine
Description: Bleeding time is defined as the time from the creation of an incision to the point where bleeding from the incision ceases. In the experiment according to one embodiment of the present invention discussed herein, bleeding time was measured from an incision on the ventral surface of the thigh with a No. 11 surgical knife.

[3] = magnesium sulfate intravenously, ANOVA
Description: The graph in FIG. 3 was generated by taking between 10 and 14 observations at each time point. The MABP was measured in millimeters of mercury (mmHg). The heart rate was measured in beats per minute (BPM).

in-stent thrombosis = test system: in-stent thrombosis
Description: (§1) Twenty one low-risk patients undergoing non-acute percutaneous coronary intervention with stent implantation received a two gm bolus of intravenous MgSO4 followed by a 1.5 gm/hour infusion for four hours and a 1 gm/hour infusion for the next eight hours. […] The preset primary endpoints for this experiment were: acute thrombotic occlusion and need for platelet IIb/IIIa inhibitors bailout, death, myocardial infarction, recurrent ischemia and need for urgent revascularization at 48 hours and 30 days. The secondary safety endpoints included hypotension, bradycardia, bleeding complications and heart block within the first 24 hours.

[4] = Description: as §1
[5] = activated clotting time (ACT), Hemochron 400; assay type: in vivo, swine
Description: In the experiment discussed herein that was conducted according to one embodiment of the present invention, ACT was determined using a Hemochron 400 (International Technidyne Corp.) machine in standard fashion. See Makkar R R, Litvack F, Eigler N L, Nakamura M, Ivey P A, Forrester J S, Shah P K, Jordan R E, Kaul S, Effects of GP IIb/IIIa Receptor Monoclonal Antibody (7E3), Heparin, and Aspirin in an Ex Vivo Canine Arteriovenous Shunt Model of Stent Thrombosis, Circulation, 1997; 95(4): 1015-1021; and Makkar R R, Eigler N L, Kaul S, Nakamura M, Forrester J S, Herbert J-M, Litvack F I, Effects of clopidogrel, aspirin and combined therapy in a porcine ex vivo model of high-shear induced stent thrombosis, Eur Heart J, 1998; 19:1538-1546.

[6] = serum magnesium level, magon dye method; assay type: in vivo, swine; settings: in words, FIG. 5
Description: Serum magnesium levels for the test subjects were measured spectrophotometrically using the magon dye method. See Elm R J, Determination of serum magnesium concentration by clinical laboratories, […], 1991-92:60-6.

platelets = settings: cited from earlier work
[7] = in vivo
Description: (§2) Experiments were performed in 10 swine weighing 25 to 30 kg. […] The right carotid artery and jugular vein were isolated and cannulated with 8F sheaths to establish an extracorporeal circuit as described previously. […] Arterial blood gases and pH were monitored periodically and maintained at normal levels by adjustment of the ventilation rate and tidal volume. Invasive arterial pressure measurement, oxygen saturation, ECG, and rectal temperature were monitored continuously. A thermostatically controlled blanket was used to maintain temperature at 37° C. Venous blood was collected for baseline platelet aggregation, complete blood cell count, and activated clotting time (ACT) measurements.
All animals received heparin at a dose of 10 U/kg as a bolus before the study to prevent thrombotic occlusion of catheters and tubing. […] At the conclusion of the experiment, blood was collected for complete blood cell counts, the carotid artery and jugular vein were ligated, and the animals were allowed to recover from anesthesia before being returned to the vivarium. Each animal was studied twice with a minimum interval of 2 weeks between each experiment.
At the end of each treatment, control stents were perfused to ensure return of stent thrombus weights towards baseline pre-treatment values. Effects on thrombus weight (TW), whole-blood platelet aggregation (PA), bleeding time (BT), activated clotting time (ACT), serum magnesium level, and complete blood count (CBC) were quantified at various time points as shown in the protocol schematic. Mean arterial blood pressure (MABP) and heart rate (HR) were monitored and recorded throughout the protocol.

[8] = test system: acute platelet-dependent stent thrombosis; settings: 10 U/kg bolus, average of 200 U per swine; cited from earlier work
[9] = test system: acute platelet-dependent stent thrombosis; test: ex-vivo porcine arteriovenous shunt model of high-shear stent thrombosis (thrombus weight); assay type: in vivo, swine
Description: An experiment according to one embodiment of the present invention was performed using an ex-vivo model that primarily examines shear-mediated, platelet-dependent thrombus formation. This experiment allowed for the evaluation of the effects of magnesium, and the time-dependent nature thereof, on acute platelet-dependent stent thrombosis in an ex-vivo porcine arteriovenous shunt model of high-shear blood flow.
as §2
All animals received heparin at a dose of 10 U/kg as a bolus before the study to prevent thrombotic occlusion of catheters and tubing. […]

[10] = in words, beyond the heparin effect

Molecule: O=S(=O)([O-])[O-].[Mg+2] [Mg, magnesium sulfate]
effect on platelet aggregation (platelet aggregation; ADP (2.5 μM), data not shown): no effect
whole-blood platelet aggregation (platelet aggregation; FIG. 5, 5 μg/mL collagen, with addition of magnesium, from 25±3, not significant): 21±5 ohms
platelet aggregation (maximal increase in electrical impedance) (platelet aggregation; Mg-late alone, 6 minutes after agonist, baseline 25±3): 22±3 ohms
platelet aggregation (maximal increase in electrical impedance) (platelet aggregation; Mg-treated animals, >40 minutes post-bolus (Mg-late)): 21.0±5 ohms
platelet aggregation (maximal increase in electrical impedance) (platelet aggregation; Mg-treated animals, within 20 minutes post-bolus (Mg-early)): 23±4 ohms
platelet aggregation (platelet aggregation; citrate-stabilized blood, post-Mg (25±3 pre)): 22±3 ohms
effect on platelet aggregation (platelet aggregation; collagen 2 μg/ml, data not shown): no effect
platelet aggregation (platelet aggregation; heparin-stabilized samples, post-Mg (26±2 pre)): 27±2 ohms
effect on platelet aggregation (platelet aggregation; in words, listed as Magnesium): no significant effects
effect on platelet aggregation (platelet aggregation; in words, listed as magnesium): no significant effect
effect on hematocrit [1]: no significant effects
effect on platelet counts [1]: no significant effects
effect on white blood cell counts [1]: no significant effects
effect on bleeding time [2, 10]: no significant effects
effect on heart rate ([3]; listed as Magnesium): no significant effects
effect on mean arterial blood pressure (MABP) ([3]; listed as Magnesium): no significant effects
effect on heart rate ([3]; listed as magnesium): no statistically significant effects
effect on mean arterial blood pressure (MABP) ([3]; listed as magnesium): no statistically significant effects
GP IIb/IIIa inhibitors bailout (in-stent thrombosis; 21 patients): no case
death (in-stent thrombosis; 21 patients): not seen
myocardial infarction (in-stent thrombosis; 21 patients): not seen
urgent revascularization (in-stent thrombosis; 21 patients): not seen
coronary artery blood flow at end of intervention (in-stent thrombosis; all cases, 21 patients): normal coronary artery blood flow (TIMI 3 flow)
hemostatic or hemodynamic complications (in-stent thrombosis; human subjects): without any hemostatic or hemodynamic complications
effect on heart rate ([4]; patients, IV MgSO4): did not have a significant effect
effect on mean arterial blood pressure ([4]; patients, IV MgSO4): did not have a significant effect
serum magnesium level ([4]; post-bolus (2 gm IV MgSO4), baseline 2.1±0.3, P<0.0001): 3.2 ± 0.3 mg/dL
serum magnesium level ([4]; post-infusion (total 16 gm)): 3.5 ± 0.8 mg/dL
effect on activated clotting time (ACT) [5, 10]: no significant effects
serum magnesium levels compared to control [6]: higher
concentration at which anti-adhesive effect may occur (platelets): < 4 mEq/L
concentration at which anti-aggregatory effect may occur (platelets): > 5 mEq/L

effect on hematocrit [7]: no significant effects
effect on platelet counts [7]: no significant effects
effect on white blood cell counts [7]: no significant effects
bleeding time ([2]; in vivo): 5.3±0.6
Molecule: heparin
platelet aggregation (maximal increase in electrical impedance) (platelet aggregation; heparin alone, 6 minutes after agonist, baseline 25±3): 24±6 ohms
effect on thrombus formation at high-shear conditions [8]: negligible effects
effect on thrombus formation (FIG. 2(a)) ([9]; given alone, magnesium both early and late groups): reduce thrombus formation slightly
reduction of stent thrombus weight (TW) ([9]; heparin alone, 50 U/kg IV bolus then 25-50 U/kg/hr, versus pre-treatment, mean±SD): 48±16%
ACT ([5]; prolonged from 109±8 seconds, P<0.01): 185 ± 36 s
